The values below come from patent US8946478B2, “Benzamide derivative with anticancer activity and preparation method and use thereof” (Zhejiang Hisun Pharmaceutical Co., Ltd., priority 2010, dated 2015).

Each structure is given as a SMILES string.

What all share (test): In vitro SRB tumor cell growth inhibition (GI50)
Common to all, as to format: cell-based

Assay [1] has as its system human ovarian cancer cell strain HO8910. The settings on record: HO-8910, HO8910 cells, 48 h.
Assay [2] deals with human ovarian cancer cell strain SKOV-3. The settings on record: SK-OV-3, SKOV-3 cells, 48 h.
In assay [3] the test system is human breast cancer cell strain MDA-MB435. The settings on record: Homo sapiens, MDA-MB-435, 48 h, MDA-MB435 cells.
Assay [4] deals with human prostate cancer BXPC-3. The settings on record: BXPC-3 cells, 48 h.
Assay [5] relates to human colon cancer cell strain Colo205. The settings on record: Colo 205 cells, 48 h.
Assay [6] concerns human lung cancer cell strain A549. The settings on record: A549 cells, 48 h. In a few lines: (§1)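 Cells grown in DMEM with 2 mM/L glutamine and 10% FBS were seeded at 5000 (NCI460, OVCAR-5) or 10000 (A549, PANC-1) cells/well, adhered 24 h, then exposed to compounds for 48 h at 37 °C, 5% CO2. Wells were TCA-fixed and SRB-stained, absorbance was read at 515 nm, and GI50 came from dose-response curves.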

The subject of assay [7] is human uterine cancer Hela. The settings on record: Homo sapiens, HeLa, 48 h, Hela cells.
Assay [8] concerns human leukemia HL-60. The settings on record: Homo sapiens, HL-60, 48 h, HL-60 cells.
Assay [9] concerns human lung cancer cell strain NCI-460. The settings on record: Homo sapiens, NCI-460, 48 h, NCI-460 cells. A digest of the protocol: as §1
The subject of assay [10] is human ovarian cancer cell strain OVCAR-5. The settings on record: OVCAR-5 cells, 48 h. In a few lines: as §1
Assay [11] relates to human leukemia K562. The settings on record: Homo sapiens, K562, 48 h, K562 cells.
The test system of assay [12] is human pancreatic cancer PANC-1. The settings on record: Homo sapiens, PANC-1, 48 h, PANC-1 cells. A digest of the protocol: as §1
Assay [13] concerns human prostate cancer DU145. The settings on record: Homo sapiens, DU-145, 48 h, DU145 cells.
Assay [14] deals with human colon cancer cell strain HCT-116. The settings on record: Homo sapiens, HCT-116, 48 h, HCT-116 cells.
In assay [15] the test system is human breast cancer cell strain MCF-7. The settings on record: Homo sapiens, MCF7, 48 h, MCF-7 cells.
Assay [16] has as its system human ovarian cancer cell strain OVCAR-8. The settings on record: Homo sapiens, OVCAR-8, 48 h, OVCAR-8 cells.
Assay [17] has as its system human lung cancer cell strain 95D. The settings on record: Homo sapiens, 95-D, 48 h, 95D cells.
Assay [18] concerns human hepatoma HepG 2. The settings on record: HepG2, HepG 2 cells, 48 h.

Regarding `NC(=O)c1ccc(I)c([N+](=O)[O-])c1` [BSI-201, 4-iodo-3-nitrobenzamide, reference compound], the GI50 was determined as 72.6 µM in assay [1]; 38.5 µM in assay [2]; 64.4 µM in assay [3]; 105 µM in assay [4]; 76 µM in [5]; 105 µM in assay [6]. The GI50 was 64.7 µM in assay [7]; 74.1 µM in assay [8]; greater than 100 µM in assay [9]; 61.1 µM in [10]; 44.6 µM in assay [11]; 25.5 µM in assay [12]. The GI50 was 86.6 µM in [13]; 64.7 µM in [14]; 40.1 µM in assay [15]; 103 µM in [16]; 53.8 µM in [17]; greater than 100 µM in [18].

As for `C#Cc1ccc(C(N)=O)cc1[N+](=O)[O-]` [Compound I-1, 4-ethynyl-3-nitrobenzamide], the GI50 in [1] amounted to 1.47 µM; in [2], 3.17 µM; in [3], 2.05 µM; in [4] it was 4.68 µM; in [5], 4.84 µM; in [6], 4.56 µM. Besides, the GI50 in assay [7] was 5.28 µM; in assay [8] it was 2.11 µM; in [9] it was 10.9 µM; in [10], 4.29 µM; in [11], 3.02 µM; in assay [12] it was 7.41 µM. The GI50 is 4.78 µM in assay [13]; 1.9 µM in assay [14]; 2.47 µM in assay [15]; 11.7 µM in [16]; 1.88 µM in assay [17]; 8.73 µM in [18].
